What was measured:
LegAS4 enzymes = format: binding, L. pneumophila strain Philadelphia
SET domain = format: binding, L. pneumophila; conditions: pH 8
LegAS4 = format: binding, L. pneumophila strain Philadelphia; conditions: pH 7.5

Row | Compound | SAM binding of the different proteins, in words (LegAS4 enzymes) | SAM binding of the SET domain alone, in words (SET domain) | Peptide binding to wild-type LegAS4, in words (LegAS4)
1 | C[S+](CC[C@H](N)C(=O)[O-])C[C@H]1O[C@@H](n2cnc3c(N)ncnc32)[C@H](O)[C@@H]1O (stereo partly drawn) [SAM] | same binding capacity to SAM | greatly decreased SAM binding | 
2 | ARTKQT-K(Biotin)-NH2 [H3 peptide (Ala1-Ala7)] |  |  | not binding the enzyme

From publication PMC10653858 (mBio, 2023)
